What all share (assay): NCI anticancer screen, dose series, 48 h
For assay [1], the system named is A498.
Assay [2] relates to CAKI-1.
The test system of assay [3] is EKVX.
Assay [4] has as its system HCT-15.
For assay [5], the system named is HOP-62.
Assay [6] relates to HOP-92.
In assay [7] the test system is IGROV-1.
Assay [8] has as its system MDA-MB-435.
In assay [9] the test system is NCI-H522.
In assay [10] the test system is OVCAR-3.
In assay [11] the test system is OVCAR-4.
The test system of assay [12] is OVCAR-8.
In assay [13] the test system is PC-3.
Assay [14] has as its system RPMI-8226.
The test system of assay [15] is RXF 393.
The test system of assay [16] is SK-MEL-28.
Assay [17] deals with SK-MEL-2.
In assay [18] the test system is U-251.
In assay [19] the test system is HCC 2998.

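A five-concentration, 48-hour dose response in 96-well plates underlies each endpoint, interpolated linearly between surrounding concentrations. GI50 = concentration required for 50% inhibition of growth.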 Active and inactive are the calls of the source. Cut-off read from the data, not from the text of the source: active = GI50 up to about 1.1 µM and inactive = higher.

The values that follow come from ChEMBL document CHEMBL1201862, “PubChem BioAssay data set” (2004).

`COc1ccc(/C=C/c2nsc(/C=C/c3ccc(OC)cc3)n2)cc1`: the GI50 in [1] is > 100 µM (inactive); in assay [2], > 100 µM (inactive); in [3], > 100 µM (inactive); in assay [4], 52.1 µM; in assay [5] it was > 100 µM (inactive); in [6], > 100 µM (inactive). The GI50 in [7] is > 100 µM (inactive); in assay [8], 85.1 µM (inactive); in [9], 39.6 µM (inactive); in assay [10], > 100 µM (inactive); in assay [11], > 100 µM (inactive); in assay [12], > 100 µM (inactive). Also, the GI50 in assay [13] was 48.5 µM (inactive); in assay [14], 28.7 µM (inactive); in [15], > 100 µM (inactive); in assay [16] it was > 100 µM (inactive); in [17] it was > 100 µM (inactive); in [18], 44.7 µM (inactive).

Consider `CCOC(=O)c1cc(I)c(-c2cc(C)no2)n1C`, for which the GI50 in assay [1] was 23.7 µM (inactive); in assay [2], 20.3 µM (inactive); in assay [3], 27 µM (inactive); in assay [4], 49.9 µM; in [6], 36.4 µM (inactive); in assay [8], 34.8 µM (inactive). Also, the GI50 in [9] is 33.4 µM (inactive); in assay [10], 38.4 µM (inactive); in [11], 21.8 µM (inactive); in [12], 59 µM (inactive); in assay [13], 38.5 µM (inactive); in assay [14], 19.3 µM (inactive). Besides, the GI50 was 15.4 µM (inactive) in [15], > 100 µM (inactive) in [16], > 100 µM (inactive) in assay [17] and 60.5 µM (inactive) in assay [18].

In the case of `COc1cccc(Nc2nc(-c3cccs3)nc3cc(OC)c(OC)cc23)c1`, the GI50 in assay [1] was 18.9 µM (inactive); in [2], 29 µM (inactive); in [3], 35.8 µM (inactive); in assay [4], 26.6 µM; in [5] it was 27.8 µM (inactive); in assay [6] it was 25 µM (inactive). For the same compound, the GI50 in [7] was 21.6 µM (inactive); in [8], 31.3 µM (inactive); in assay [9] it was 18.9 µM (inactive); in [10], 24.3 µM (inactive); in [11] it was 41.3 µM (inactive); in assay [12], 23.9 µM (inactive). Besides, the GI50 in assay [13] is 27.9 µM (inactive); in assay [14], 13.2 µM (inactive); in assay [16] it was 31.5 µM (inactive); in assay [17], 35.8 µM (inactive); in [18], 23.8 µM (inactive).

As for `Oc1ccc2cc(Br)ccc2c1-c1c(O)ccc2ccc(Br)cc12`, the GI50 was 17.3 µM (inactive) in assay [1]; 18.8 µM (inactive) in assay [2]; 6.52 µM (inactive) in assay [19]; 14.9 µM in assay [4]; 14.7 µM (inactive) in [5]; 8.3 µM (inactive) in [7]. Moreover, the GI50 in assay [8] is 16.2 µM (inactive); in assay [9] it was 15.2 µM (inactive); in assay [10], 13.9 µM (inactive); in assay [12], 14.4 µM (inactive); in assay [13], 12.6 µM (inactive); in assay [16] it was 18.7 µM (inactive). The GI50 in assay [17] is 16 µM (inactive); in assay [18] it was 14.1 µM (inactive).

On to `Cc1ccc2nc3ccccc3c(C3C4C(=O)N(c5ccc(Br)cc5Cl)C(=O)C4ON3C(C(N)=O)c3ccccc3)c2c1` (stereo unspecified), for which the GI50 was > 25 µM (inactive) in [1]; 4.9 µM (inactive) in assay [2]; 6.56 µM (inactive) in [3]; 5.77 µM in assay [4]; > 25 µM (inactive) in [5]; > 25 µM (inactive) in assay [6]. The GI50 in [7] is 16.7 µM (inactive); in assay [8], 11.1 µM (inactive); in [9], 13.6 µM (inactive); in [10], > 25 µM (inactive); in [11], 19.7 µM (inactive); in [12], > 25 µM (inactive). The GI50 is > 25 µM (inactive) in [13]; 13.3 µM (inactive) in assay [15]; > 25 µM (inactive) in assay [16]; 18.1 µM (inactive) in [17]; > 25 µM (inactive) in assay [18].

For `OC(Cc1cccc2ccccc12)CN1CCC(c2ccccc2)CC1` (stereo unspecified), the GI50 was 11.1 µM (inactive) in [2]; 14 µM (inactive) in [3]; 2.56 µM (inactive) in assay [19]; 14.5 µM in assay [4]; 15.8 µM (inactive) in assay [5]; 12.4 µM (inactive) in assay [6]. In addition, the GI50 in assay [8] was 15.1 µM (inactive); in assay [9], 9.48 µM (inactive); in [10], 15.1 µM (inactive); in [12], 16.8 µM (inactive); in [13], 14.5 µM (inactive); in assay [14], 8.13 µM (inactive). For the same compound, the GI50 in assay [15] is 10.2 µM (inactive); in assay [16], 13.4 µM (inactive); in assay [18] it was 13.4 µM (inactive).

For the compound `Cc1cc(C23OC4COC(C)(C)OC4C2OC(C)(C)O3)nc2ccccc12` (stereo unspecified), the GI50 in assay [3] is > 100 µM (inactive); in assay [19], > 100 µM (inactive); in [4], greater than 100 µM; in [5], > 100 µM (inactive); in assay [6] it was > 100 µM (inactive); in [7] it was 31.3 µM (inactive). Also, the GI50 was > 100 µM (inactive) in [8]; > 100 µM (inactive) in assay [9]; > 100 µM (inactive) in assay [10]; > 100 µM (inactive) in assay [11]; > 100 µM (inactive) in [12]; 78.2 µM (inactive) in [13]. The GI50 in assay [14], in [15], in assay [16], in assay [17] and in assay [18] was > 100 µM (inactive) in each case.

Turning to `S=c1cc(-c2ccc3c(c2)OCO3)s[nH]1`, the GI50 in assay [1] was 46.6 µM (inactive); in [2] it was > 100 µM (inactive); in assay [3], > 100 µM (inactive); in assay [4], greater than 100 µM; in assay [5], > 100 µM (inactive); in assay [6], > 100 µM (inactive). The GI50 in assay [7] was > 100 µM (inactive); in [8], > 100 µM (inactive); in [9], 5.81 µM (inactive); in assay [10] it was > 100 µM (inactive); in assay [11] it was > 100 µM (inactive); in assay [12] it was > 100 µM (inactive). The GI50 in assay [13], in assay [14], in [15], in [16], in [17] and in assay [18] was > 100 µM (inactive) each time.

Consider `COc1cc(-c2nc3ccccn3c2/N=C/c2cc(Br)cc(Br)c2O)ccc1O`, for which the GI50 in assay [2] is 29.2 µM (inactive); in assay [3] it was 19.1 µM (inactive); in assay [19], 79.6 µM (inactive); in assay [4], 19 µM; in assay [5] it was 21.6 µM (inactive); in [6] it was 23.4 µM (inactive). The GI50 is 22.9 µM (inactive) in assay [7]; 22.4 µM (inactive) in assay [8]; 23.2 µM (inactive) in [9]; 15.6 µM (inactive) in assay [10]; 19.4 µM (inactive) in [11]; 23.4 µM (inactive) in [12]. Moreover, the GI50 in assay [13] was 22.6 µM (inactive); in assay [14], 24.7 µM (inactive); in assay [15], 32.9 µM (inactive); in assay [16] it was 16.6 µM (inactive); in assay [17], 22.3 µM (inactive); in [18], 15.6 µM (inactive).

Consider `CO[P@]1(=O)O[C@@H](c2ccccc2)[C@H](O)[C@@]1(O)c1ccccc1`, for which the GI50 in [1] is > 100 µM (inactive); in [2], > 100 µM (inactive); in [3] it was > 100 µM (inactive); in [4], greater than 100 µM; in assay [6], > 100 µM (inactive); in [7], > 100 µM (inactive). The GI50 in [8], in assay [9], in [10], in assay [11], in [12] and in [13] was > 100 µM (inactive) throughout. The GI50 in assay [15], in assay [16], in [17] and in assay [18] was > 100 µM (inactive) in each case.

Regarding `CC(=O)OC1CC2(C)C(=CC1C1SCCS1)CCC1C2CCC2(C)C(OC(C)=O)CCC12` (stereo unspecified), the GI50 is 70 µM (inactive) in [1]; > 100 µM (inactive) in assay [2]; > 100 µM (inactive) in assay [3]; greater than 100 µM in assay [4]; 97.5 µM (inactive) in assay [5]; 66.4 µM (inactive) in assay [6]. Besides, the GI50 in assay [7] was > 100 µM (inactive); in assay [8] it was > 100 µM (inactive); in assay [9] it was 37 µM (inactive); in assay [10], > 100 µM (inactive); in [11], > 100 µM (inactive); in assay [12], > 100 µM (inactive). Besides, the GI50 in assay [13] is > 100 µM (inactive); in assay [14] it was > 100 µM (inactive); in assay [15], 19.3 µM (inactive); in assay [16], > 100 µM (inactive); in [17], 45.4 µM (inactive); in assay [18], 32.3 µM (inactive).

`CCOC(=O)CCC(C(=O)OCC)n1nnc2cc(Nc3c(C)[n+]([O-])c4cc(F)c(OCC)cc4[n+]3[O-])ccc21` (stereo unspecified): the GI50 in assay [1] was > 100 µM (inactive); in [2] it was > 100 µM (inactive); in [3] it was > 100 µM (inactive); in [4], greater than 100 µM; in [5] it was 22.2 µM (inactive); in assay [6], 25.6 µM (inactive). For the same compound, the GI50 was > 100 µM (inactive) in [7]; > 100 µM (inactive) in [8]; > 100 µM (inactive) in assay [9]; > 100 µM (inactive) in assay [10]; > 100 µM (inactive) in [11]; 87.1 µM (inactive) in [12]. Besides, the GI50 in assay [13] is > 100 µM (inactive); in assay [14] it was > 100 µM (inactive); in assay [15], 14 µM (inactive); in assay [17] it was 83.4 µM (inactive); in assay [18], 30.7 µM (inactive).
